Test results from US12161741B2, “Skin gel preparation for external use” (Shiseido Company, Ltd., priority 2018, dated 2024).

Assay: Solubility of the di-chain cationic surfactant (distearyldimonium chloride) in oils
Details: for Evaluation Result (state of the solution of distearyldimonium chloride in the oil): 1 g distearyldimonium chloride mixed and heated to dissolve in 100 g of oil, at rest 24 hours at ambient temperature; for Dissolution of the di-chain cationic surfactant in the oil (text summary of Table 1): 1 g in 100 g oil, 24 hours at ambient temperature

Compound	Evaluation Result (state of the solution of distearyldimonium chloride in the oil)	Dissolution of the di-chain cationic surfactant in the oil (text summary of Table 1)
CC(C)CCCCCCCCCCCCCCCOC(=O)CC(O)C(=O)OCCCCCCCCCCCCCCCC(C)C (centres unmarked) [Diisostearyl malate]	○	homogeneously dissolved
CCCCC(CC)COCC(O)CO (centres unmarked) [Ethylhexylglycerin]	○	homogeneously dissolved
CC(C)CCCCCCCCCCCCCCCO [Isostearyl alcohol]	–	homogeneously dissolved
CCCCCCCCCCC(CO)CCCCCCCC (centres unmarked) [Octyldodecanol]	–	homogeneously dissolved
Glyceryl diisostearate	○	homogeneously dissolved
